Where two headings read alike, the source gives them in different places.
Key:
[1] = Solubility of the salt in water at ambient temperature; format: physicochemical
Method: To the solution of (R)-2-[3-[4-amino-3-(2-fluoro-4-phenoxy-phenyl)pyrazolo[3,4-d]pyrimidin-1-yl]piperidine-1-carbonyl]-4-methyl-4-[4-(oxetan-3-yl)piperazin-1-yl]pent-2-enenitrile (having about 9/1 E/Z ratio) (4.2 g) in EtOAc (60 mL, 15 vol) was added sulfuric acid (0.31 g, 0.17 mL, 0.5 eq) in EtOAc (20 mL, 5 vol) at ambient temperature. The suspension was stirred at ambient temperature for ˜2 hr and then 40° C. for 4 hr and then at ambient temperature for at least 1 hr. After filtration and drying at ambient temperature under vacuum, 1.5 g of white powder was obtained. Solubility of the hemi-sulfate at ambient temperature was >100 mg/mL in water.

[2] = Solubility of Compound (I) at low pH; format: physicochemical
[3] = Site specific gastrointestinal dosing (oral gavage, intraduodenal, intrajejunal) in rats, plasma AUC; format: in vivo, Wister-Hans rats; settings: for AUC: Wister-Hans, rat, plasma
Method: Compound (I) was dosed in 10 mg/mL aqueous citrate solution at 20 mg/kg to Wister-Hans rats. Free base of Compound (I) was dissolved in aqueous solution of citric acid (containing 0.5 equivalents of anhydrous citiric acid) . The experiment was repeated 3 times each with 2 separate arms, and one oral (PO) gavage arm was included in each study. Intra-jejunal (IJ) and intra-duodenal (ID) dosing was done in cannulated rats. In the first study, there was about 40-fold increase in the AUC for the IJ-dosed group compared to the PO group, and the major metabolite, present in the PO arm was reduced by 20 fold in the IJ-group.

[4] = system: intestinal tissue (stomach, duodenum, jejunum, ileum, colon); test: In vitro permeation in Ussing chambers through different intestinal regions of rat; format: in vitro ADME, Sprague-Drawley rats; settings: 100 uM, mucosal to serosal, distal regions compared to stomach or duodenum, FIG. 7
Method: Reagents: 10× Krebs-Ringer buffer (KRB) comprised of 1.26M NaCl (Promega, Madison, Wis.), 25mM KCl, 250 mM NaHCO3, 12 mM NaH2PO4, 12 mM MgCl2, 25 mM CaCl2 and 18 g/L D-Glucose (all from Sigma Aldrich, St. Louis, Mo.) prepared and stored individually to prevent crystallization. Dilute to 1× working concentration prior to use and pH adjusted with either carbogen perfusion for 20 mins to pH 7.4 (oxygenated KRB) or 1M HCl (Alfar Aesar, Ward Hill, Mass.) to pH 3.5, 6.5 or 7.4. 0.1% Phenol red, Antipyrine and Atenolol were purchased from Sigma Aldrich, St. Louis, Mo.
Harvest and preparation of intestinal tissue: 4 to 9 month old adult female virgin Sprague-Drawley rats (Harlan Laboratories, Livermore, Calif.) were acclimated in-house for a minimum of 3 days prior to experimentation. Adolescent and geriatric animals should be avoided to prevent age-related differences in gastro-intestinal morphology and function. Animals were housed under IACUC-approved husbandry protocols including 12-hour light and 12-hour dark cycles, and allowed standard chow and water ad libitum. Tissue harvest should be performed one animal at a time to maintain tissue viability. […]

Row | Structure (SMILES) | solubility [1] [mg/mL] | solubility at low pH [2] | increase in AUC, ID compared to oral gavage ([3]; ID vs PO) | metabolic stability by site of administration ([3]; IJ dosing compared to oral gavage) | AUC ([3]; 20 mg/kg, intraduodenum cannula, 20 mg/kg, aqueous citrate solution, read-out: AUC, intraduodenal (ID) dosing) [ng·h/mL] | AUC ([3]; other: intrajejunal, 20 mg/kg, intrajejunum cannula, 20 mg/kg, aqueous citrate solution, read-out: AUC, intrajejunal (IJ) dosing) [ng·h/mL] | AUC ([3]; po, 20 mg/kg, oral (PO) gavage, 20 mg/kg, 10 mg/mL aqueous citrate solution, read-out: AUC, oral gavage) [ng·h/mL] | AUC, intrajejunal (IJ) dosing ([3]; intrajejunum cannula, 20 mg/kg, aqueous citrate solution) | AUC, oral gavage ([3]; oral (PO) gavage, 20 mg/kg, 10 mg/mL aqueous citrate solution) [ng·h/mL] | permeability (Papp) by region of the GI tract [4]
1 | CC(C)(C=C(C#N)C(=O)N1CCC[C@@H](n2nc(-c3ccc(Oc4ccccc4)cc3F)c3c(N)ncnc32)C1)N1CCN(C2COC2)CC1 [hemi-sulfate, (R)-2-[3-[4-amino-3-(2-fluoro-4-phenoxy-phenyl)pyrazolo[3,4-d]pyrimidin-1-yl]piperidine-1-carbonyl]-4-methyl-4-[4-(oxetan-3-yl)piperazin-1-yl]pent-2-enenitrile] | > 100 |  |  |  |  |  |  |  |  | 
2 | CC(C)(C=C(C#N)C(=O)N1CCCC(n2nc(-c3ccc(Oc4ccccc4)cc3F)c3c(N)ncnc32)C1)N1CCN(C2COC2)CC1 [Compound (I), (R)-2-[3-[4-amino-3-(2-fluoro-4-phenoxy-phenyl)pyrazolo[3,4-d]pyrimidin-1-yl]piperidine-1-carbonyl]-4-methyl-4-[4-(oxetan-3-yl)piperazin-1-yl]pent-2-enenitrile] |  | greater than 10 % (w/v) | approximately 2 fold | more metabolically stable | 1780 | 14400 | 668 to 1640 | 26,800 ng*hr/ml | 994 | statistically increased permeabilities

— patent publication US20180015088A1, “SITE SPECIFIC DOSING OF A BTK INHIBITOR” (Principia Biopharma Inc., priority 2014, published 2018)
